Source: publication PMC6828666, “Discovery of holoenzyme-disrupting chemicals as substrate-selective CK2 inhibitors” (Scientific Reports, 2019)
Counter-ions that a name gives are not always drawn.

Assays:
[1] = test system: panels of different kinases; design: method as in PMID 28451126; settings: cited from earlier work
CK2α2β2 holoenzyme = target: T1, CK2α2β2 holoenzyme (Homo sapiens, UniProt P68400); experiment: CK2 kinase assay with CK2β-dependent peptide substrate (eIF2-derived); format: biochemical; settings: compound at 50 μM; CK2β-dependent peptide substrate
T1 construct: made in house; host or cells: Escherichia coli (CK2α)
Protocol: First, all the compounds were dissolved at 200 μM in 50 mM Tris-HCl pH 7.5 buffer containing 0.1 M NaCl and 5% DMSO; the compounds that precipitated under these conditions were discarded. The 32 remaining compounds were diluted at 200 μM in the kinase buffer and centrifuged at 14,000 g. The supernatant was then assayed for ability to inhibit phosphorylation of a CK2β-dependent peptide substrate. For this, a 22-residue long N-terminal fragment of the eukaryotic translation initiation factor 2 (eIF2), known to be exclusively phosphorylated by the CK2α2β2 holoenzyme[4] was used as a substrate. […]
Final concentration of ATP was 100 μM. Assays were performed under linear kinetic conditions for 5 min at room temperature before termination by the addition of 60 μL of 4% TCA. ^32P incorporation in peptide substrate was determined as previously described. […]

CK2α = CK2α (Homo sapiens, UniProt P68400); experiment: SPR binding studies on captured GST-CK2α; settings: surface plasmon resonance
Protocol: SPR competition studies (Fig. 2i) were performed using a BIAcore 3000 instrument (BIAcore AB) equipped with a CM5 sensor chip (BIAcore AB). After activation with a solution of N-hydroxysuccinimide and N-ethyl-N-(dimethylaminopropyl)carbodiimide hydrochloride (coupling solution BIAcore AB), the anti-GST antibody diluted at 30 μg/ml in 10 mM acetate buffer pH 5.0 was injected at a flow rate of 5 μL/min for 7 min. All the surfaces were blocked with a 3 min injection at 10 μL/min of 1 M ethanolamine, pH 8.0. GST-CK2α (50 μg/ml) was immobilized on the surface at a flow rate of 5 μL/min in HBS (10 mM Hepes pH 7.3, 0.15 M NaCl, 3 mM EDTA, 0.005% polysorbate 20). MBP-CK2β diluted at 50 μg/ml in HBS buffer was injected over the surface at a flow rate of 5 μL/min in presence of various compound 1 concentration. Regeneration of the surfaces was achieved by injection of 10 mM glycine-HCl pH 2.2. SPR binding studies (Supplementary Fig. S7) were performed using a Reichert SR7000DC instrument optical biosensor (Reichert Technologies) equipped with a CMD500m sensor chip obtained from XanTec Bioanalytics. CK2α was immobilized by a capturing approach using a monoclonal anti-GST antibody (27 kDa, Clone GST-R 6G9 produced in rat, SAB4200055 Sigma Aldrich). Prior to use, the anti-GST antibodies were purified twice by micro dialysis at 4 °C (Membrane: dialysis tubing benzoylated, 9 mm, D2272-5FT) in 10 mM sodium acetate, pH = 5. Anti-GST antibodies were immobilized using amine-coupling chemistry at 12 °C. The surfaces of all two flow cells were activated for 7 min with a 1:1 mixture of 0.1 M NHS (N-hydroxysuccinimide) and 0.1 M EDC (3-(N,N-dimethylamino) propyl-N-ethylcarbodiimide) at a flow rate of 10 μL/min. The antibody at a concentration of 30 μg/mL in 10 mM sodium acetate, pH 5.0, was immobilized at a density of 2000 RU on flow cell 2; flow cell 1 was left blank to serve as a reference surface. All the surfaces were blocked with a 3 min injection at 10 μL/min of 1 M ethanolamine, pH 8.0. GST tagged CK2α at a concentration of 50 μg/mL in 10 mM HEPES, 150 mM NaCl, 3 mM EDTA, 0.005% (v/v) polysorbate 20, pH = 7.4 was captured at a density of 900 RU on flow cell 2. In order to collect kinetic binding data, analytes in 10 mM HEPES, 150 mM NaCl, 3 mM EDTA, 0.005% (v/v) polysorbate 20, 1% DMSO (v/v), 100 μM ATP, pH = 7.4 were injected over the two flow cells at concentrations of 50, 25, 12.5, 6.25, 3.12, 1.56 μM at a flow rate of 25 μL/min and at a temperature of 25 °C. The complex was allowed to associate and dissociate for 120 s. Duplicate injections (in random order) of each sample and a buffer blank were flowed over the two surfaces. Affinities were obtained after treatments (DMSO calibration, blank and references subtractions) using the software Scrubber 2.0c.
Fig. S7. Binding kinetics of compounds 2-6 by surface plasmon resonance. For each compound, sensorgrams (black line) and global fits (orange line) are depicted with the corresponding chemical structure and the fitted kinetics parameters. Experiments show representative data of two identical repeats.

MCF10A cells = experiment: Cell growth inhibition (IncuCyte); format: cell-based, human; settings: 24 h
Protocol: Cells grown on 96-well flat-bottomed plates (Corning Falcon) were tracked using an Essen IncuCyte Zoom live-cell microscopy instrument, an automated live cell imager with high-throughput capabilities and built-in data analysis. Experiments were conducted at 37 °C and 5% CO2. The software incorporated into the IncuCyte Zoom was used to analyze the images.
MCF10A and MDA-MB231 cells were seeded into 96-well plates at a density (1 × 10^4 and 2 × 10^4 cells/well, respectively) and allowed to attach overnight. Bright field images were captured every 3 h for the duration of the experiment. The detection software was calibrated specifically for MCF10A and MDA-MB231 to ensure accurate distinction of cells from empty space. Cell proliferation data were obtained by the cell confluence increment in each of the treatments and expressed as percentage relative to that of control cells.
Fig. S9. […] (a) MCF10A cells were incubated with increasing concentrations of 6 for 24 h. (b) Inset: western blot analysis of CK2 subunits in parental MCF10A cells (WT) or CK2β knockdown MCF10A cells (∆CK2β). Uncropped blots are shown in Supplementary Fig. S16. MCF10A WT (r,p) or MCF10A ∆CK2β (○,●) were incubated with DMSO (r,○) or 50 μM 6 (p,●) for the indicated time. Cell growth was monitored using an Essen IncuCyte Zoom live-cell microscopy incubator. Images were captured every 15 min for the duration of the experiment. […]

[2] = target: [35S]methionine-labeled CK2α (human) (UniProt P68400); experiment: radioligand binding; biotinylated MBP-CK2β (250 ng/well) on streptavidin-coated 96-well plates; soluble [35S]methionine-labeled CK2α (10^5 cpm) with or without competitor; 50 mM Tris/HCl pH 7.2, 0.4 M NaCl; 1 h at room temperature, washed three times, scintillation counting
[35S]methionine-labeled CK2α (human), sequence (P68400 whole entry): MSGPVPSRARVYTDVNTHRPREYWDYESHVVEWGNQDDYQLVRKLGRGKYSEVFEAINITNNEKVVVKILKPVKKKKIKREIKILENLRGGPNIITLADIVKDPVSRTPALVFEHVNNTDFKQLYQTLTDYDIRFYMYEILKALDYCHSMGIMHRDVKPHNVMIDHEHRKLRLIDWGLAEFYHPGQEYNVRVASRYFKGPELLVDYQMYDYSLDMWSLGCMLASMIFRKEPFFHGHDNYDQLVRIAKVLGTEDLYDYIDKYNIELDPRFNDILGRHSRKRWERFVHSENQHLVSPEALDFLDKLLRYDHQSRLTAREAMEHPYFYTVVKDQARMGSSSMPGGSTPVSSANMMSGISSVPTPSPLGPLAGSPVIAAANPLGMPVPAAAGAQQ

CK2α, sequence (P68400 whole entry): as above
T1 sequence (P68400 whole entry): as above

In the case of O=C(O)c1ccc2c(c1)nc(Nc1cccc(Cl)c1)c1ccncc12 [CX-4945], the Gini coefficient [1] is given as 0.62.

With CS(=O)(=O)NCCN1CCC(COC(=O)c2c[nH]c3ccc(F)cc23)CC1 [Compound 2, (1-(2-(Methylsulfonamido)ethyl)piperidin-4-yl)methyl 5-fluoro-1H-indole-3-carboxylate hydrochloride] the inhibition at 50 µM (CK2α2β2 holoenzyme) was 25% and the Kd (CK2α) was 44 ± 6 µM.

Compound O=C(OCC1CCN(CCNS(=O)(=O)c2ccccc2)CC1)c1c[nH]c2ccc(F)cc12 [Compound 5, (1-(2-(Phenylsulfonamido)ethyl)piperidin-4-yl)methyl 5-fluoro-1H-indole-3-carboxylate hydrochloride] has an inhibition at 50 µM (CK2α2β2 holoenzyme) of 66% and a Kd (CK2α) of 43 ± 2 µM.

With COc1[nH]c2ccc(F)cc2c1C(=O)OCC1CCN(CCNS(=O)(=O)c2ccccc2)CC1.Cl [Compound 6, 1-(2-(Phenylsulfonamido)ethyl)piperidin-4-yl)methyl 5-fluoro-2-methoxy-1H-indole-3-carboxylate hydrochloride] the Kd (CK2α) was 30 ± 2 µM and the GI50 (MCF10A cells) was 22 ± 3 µM.

CK2β-derived cyclic peptide, Pc gave a percent inhibition of CK2α/CK2β complex formation at 60 μM [2] of 90%.
